Test: LCST (lower critical solution temperature) measured by UV/VIS spectrophotometer
Assay type: physicochemical
Settings: lower critical solution temperature in water; Perkin-Elmer Lamda18 UV/VIS spectrophotometer
Procedure: Thermosensitivity in the present invention refers to the reversible phenomenon wherein a material is dissolved in water at a low temperature but precipitated as a result of the lowered solubility above at a critical temperature, and re-dissolved in water by lowering the temperature. This phenomenon is contradictory to the general phenomenon that solubility increases at higher temperatures. Thermosensitivity is often observed for water-soluble polymers that are dissolved below and precipitated above the so-called lower critical solution temperatures (LCST). Below the LCST, interaction between polymer and water molecules by hydrogen bonding is greater than the intermolecular hydrophobic interaction between polymer molecules, which results in dissolution of the polymer in water. As the temperature of the aqueous solution increases, however, the hydrogen bonding of the polymer-water molecules weakens whereas the hydrophobic interaction between the polymer molecules increases. As, the temperature of the aqueous solution reaches the LCST, the hydrophobic interaction becomes greater than the hydrogen bonding interaction between the polymer and water molecules resulting in the precipitation of the polymer in aqueous solution.
Elemental analysis of carbon, hydrogen, nitrogen in the compounds of the present invention was performed in the Special Analysis Center in our Institute by using a carbon, hydrogen and nitrogen analyzer (Perkin Eimer), and phosphorous analysis was performed using a Polyscan 61E ICP. Also, hydrogen and phosphorous nuclear magnetic resonance spectra were obtained using a Varian Gemini-300, and the LCST was measured by using a Perkin-Elmer Lamda18 UV/VIS spectrophotometer.

Row | Substance | LCST
1 | (2-(2′-Methoxyethoxy)ethoxy)(glycineethylester)cyclotriphosphazene [Example 1] | above 100 °C
2 | (2-(2′-Methoxyethoxy)ethoxy)(L-aspartoyldiethylester) cyclotriphosphazene [Example 4] | 47.5 °C
3 | (2-(2′-Methoxyethoxy)ethoxy)(glycinebenzylester) cyclotriphosphazene [Example 2] | 10.5 °C
4 | (2-(2′-Butoxyethoxy)ethoxy)(L-aspartoyldiethylester) cyclotriphosphazene [Example 7] | below 0 °C
5 | (2-(2′-Methoxyethoxy)ethoxy)-(aminomalonatodiethylester) cyclotriphosphazene [Example 3] | 39.0 °C
6 | (2-(2′-Methoxyethoxy)ethoxy)(L-glutamoyldiethylester) cyclotriphosphazene [Example 5] | 30.0 °C

The remaining lines, values ahead:

Row | LCST | Substance
7 | 42.5 °C | (Poly(methoxyethyleneglycol350))(L-aspartoyldibenzylester)cyclotriphosphazene [Example 11]
8 | 78.5 °C | (Poly(methoxyethyleneglycol750))(L-aspartoyldibenzylester) cyclotriphosphazene [Example 14]
9 | 95.0 °C | (Poly(methoxyethyleneglycol350))(aminomalonatoyl diethylester)cyclotriphosphazene [Example 9]
10 | 65.5 °C | (Poly(methoxyethyleneglycol350))(glycinebenzylester) cyclotriphosphazene [Example 8]
11 | 16.5 °C | (2-(2′-Ethoxyethoxy)ethoxy)(L-aspartoyldiethylester) cyclotriphosphazene [Example 6]
12 | 69.0 °C | (Poly(methoxyethyleneglycols550))L-aspartoyldibenzylester) cyclotriphosphazene [Example 13]
13 | 83.0 °C | (Poly(methoxyethyleneglycol350))(L-aspartoyldiethylester) cyclotriphosphazene [Example 10]
14 | 73.0 °C | (Poly(methoxyethyleneglycol350))(L-glutamoyldiethylester) cyclotriphosphazene [Example 12]
